Data published in patent US20100267561A1, “HERBICIDAL PYRIDAZINONE DERIVATIVES” (priority 2007, published 2010).

Key:
Assay in all cases: Test B pre-/postemergence plant response
Type in all cases: in vivo
[1] = test system: large crabgrass (Digitaria sanguinalis); conditions: for Crabgrass, Large plant response rating: 8 g ai/ha
In short: (§1)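 Preemergence and postemergence (plants 2-18 cm, 1- to 4-leaf stage) applications used test chemicals in a non-phytotoxic solvent with surfactant. Plants were held in a greenhouse 13 to 15 days, then rated visually against controls on a 0-100 scale (0 no effect, 100 complete control).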

corn (Zea mays) = conditions: for Corn plant response rating: 8 g ai/ha
In short: as §1

[2] = test system: woolly cupgrass (Eriochloa villosa); conditions: for Cupgrass, Woolly plant response rating: 8 g ai/ha
In short: as §1

[3] = test system: pigweed (Amaranthus retroflexus); conditions: for Pigweed plant response rating: 8 g ai/ha
In short: as §1

kochia (Kochia scoparia) = conditions: for Kochia plant response rating: 8 g ai/ha
In short: as §1

[4] = test system: yellow nutsedge (Cyperus esculentus); conditions: for Nutsedge, Yellow plant response rating: 8 g ai/ha
In short: as §1

[5] = test system: common ragweed (Ambrosia elation); conditions: for Ragweed plant response rating: 8 g ai/ha
In short: as §1

[6] = test system: catchweed bedstraw (Galium aparine); conditions: Preemergence
In short: as §1

[7] = test system: cocklebur (Xanthium strumarium); conditions: for Cocklebur plant response rating: 8 g ai/ha
In short: as §1

[8] = test system: blackgrass (Alopecurus myosuroides)
In short: as §1

[9] = test system: velvetleaf (Abutilon theophrasti); conditions: for Velvetleaf plant response rating: 8 g ai/ha
In short: as §1

[10] = test system: green foxtail (Setaria viridis); conditions: for Foxtail, Green plant response rating: 8 g ai/ha
In short: as §1

wild oat (Avena fatua) = conditions: for Oat, Wild plant response rating: 8 g ai/ha
In short: as §1

[11] = test system: lambsquarters (Chenopodium album); conditions: for Lambsquarters plant response rating: 8 g ai/ha
In short: as §1

[12] = Postemergence, 16 g ai/ha, scale 0 to 100
[13] = Postemergence, 31 g ai/ha, scale 0 to 100, 0 no effect, 100 complete control
[14] = Postemergence, 62 g ai/ha, scale 0 to 100, 0 no effect, 100 complete control
[15] = Preemergence, 16 g ai/ha, scale 0 to 100 (0 no effect, 100 complete control)
[16] = Preemergence, 31 g ai/ha, 0 to 100 scale, 0 no effect, 100 complete control
[17] = Preemergence, 62 g ai/ha, scale 0 to 100

## Cc1cc(-c2ccc(Cl)cc2)nn1-c1c(OC(=O)c2cccc(Cl)c2)cnn(C)c1=O [Compound 32]
[1]; postemergence, 0-100 scale
  Crabgrass, Large plant response rating: 60
[1]; [12]
  Plant response rating, Crabgrass, Large: 85
[1]; [13]
  Plant response rating, Crabgrass, Large: 95
[1]; [14]
  Plant response rating, Crabgrass, Large: 98
[1]; [15]
  Plant response rating, Crabgrass, Large: 85
[1]; [16]
  Plant response rating, Crabgrass, Large: 100
[1]; [17]
  Plant response rating, Crabgrass, Large: 100
[1]; Preemergence, scale 0 to 100
  Crabgrass, Large plant response rating: 20
Corn (Zea mays); postemergence, 0-100 scale
  Corn plant response rating: 0
Corn (Zea mays); [12]
  Plant response rating, Corn: 0
Corn (Zea mays); [13]
  Plant response rating, Corn: 0
Corn (Zea mays); [14]
  Plant response rating, Corn: 0
Corn (Zea mays); [15]
  Plant response rating, Corn: 45
Corn (Zea mays); [16]
  Plant response rating, Corn: 60
Corn (Zea mays); [17]
  Plant response rating, Corn: 95
Corn (Zea mays); Preemergence, scale 0 to 100
  Corn plant response rating: 0
[2]; postemergence, 0-100 scale
  Cupgrass, Woolly plant response rating: 75
[2]; [12]
  Plant response rating, Cupgrass, Woolly: 85
[2]; [13]
  Plant response rating, Cupgrass, Woolly: 100
[2]; [14]
  Plant response rating, Cupgrass, Woolly: 100
[2]; [15]
  Plant response rating, Cupgrass, Woolly: 70
[2]; [16]
  Plant response rating, Cupgrass, Woolly: 80
[2]; [17]
  Plant response rating, Cupgrass, Woolly: 85
[2]; Preemergence, scale 0 to 100
  Cupgrass, Woolly plant response rating: 55
[3]; postemergence, 0-100 scale
  Pigweed plant response rating: 0
[3]; [12]
  Plant response rating, Pigweed: 0
[3]; [13]
  Plant response rating, Pigweed: 0
[3]; [14]
  Plant response rating, Pigweed: 0
[3]; [15]
  Plant response rating, Pigweed: 0
[3]; [16]
  Plant response rating, Pigweed: 0
[3]; [17]
  Plant response rating, Pigweed: 0
[3]; Preemergence, scale 0 to 100
  Pigweed plant response rating: 0
Kochia (Kochia scoparia); postemergence, 0-100 scale
  Kochia plant response rating: 0
Kochia (Kochia scoparia); [12]
  Plant response rating, Kochia: 0
Kochia (Kochia scoparia); [13]
  Plant response rating, Kochia: 0
Kochia (Kochia scoparia); [14]
  Plant response rating, Kochia: 0
Kochia (Kochia scoparia); [15]
  Plant response rating, Kochia: 0
Kochia (Kochia scoparia); [16]
  Plant response rating, Kochia: 0
Kochia (Kochia scoparia); [17]
  Plant response rating, Kochia: 0
Kochia (Kochia scoparia); Preemergence, scale 0 to 100
  Kochia plant response rating: 0
[4]; postemergence, 0-100 scale
  Nutsedge, Yellow plant response rating: 0
[4]; [12]
  Plant response rating, Nutsedge, Yellow: 0
[4]; [13]
  Plant response rating, Nutsedge, Yellow: 0
[4]; [14]
  Plant response rating, Nutsedge, Yellow: 0
[4]; [15]
  Plant response rating, Nutsedge, Yellow: 0
[4]; [16]
  Plant response rating, Nutsedge, Yellow: 0
[4]; [17]
  Plant response rating, Nutsedge, Yellow: 0
[4]; Preemergence, scale 0 to 100
  Nutsedge, Yellow plant response rating: 0
[5]; postemergence, 0-100 scale
  Ragweed plant response rating: 0
[5]; [12]
  Plant response rating, Ragweed: 0
[5]; [13]
  Plant response rating, Ragweed: 0
[5]; [14]
  Plant response rating, Ragweed: 0
[5]; [15]
  Plant response rating, Ragweed: 0
[5]; [16]
  Plant response rating, Ragweed: 0
[5]; [17]
  Plant response rating, Ragweed: 0
[5]; Preemergence, scale 0 to 100
  Ragweed plant response rating: 0
[6]; 16 g ai/ha, scale 0 to 100 (0 no effect, 100 complete control)
  Plant response rating, Galium: 0
[6]; 31 g ai/ha, 0 to 100 scale, 0 no effect, 100 complete control
  Plant response rating, Galium: 0
[6]; 62 g ai/ha, scale 0 to 100
  Plant response rating, Galium: 0
[6]; 8 g ai/ha, scale 0 to 100
  Galium plant response rating: 0
[7]; postemergence, 0-100 scale
  Cocklebur plant response rating: 0
[7]; [12]
  Plant response rating, Cocklebur: 0
[7]; [13]
  Plant response rating, Cocklebur: 0
[7]; [14]
  Plant response rating, Cocklebur: 0
[7]; [15]
  Plant response rating, Cocklebur: 0
[7]; [16]
  Plant response rating, Cocklebur: 0
[7]; [17]
  Plant response rating, Cocklebur: 0
[7]; Preemergence, scale 0 to 100
  Cocklebur plant response rating: 0
[8]; 8 g ai/ha, postemergence, 0-100 scale
  Blackgrass plant response rating: 30
[8]; [12]
  Plant response rating, Blackgrass: 35
[8]; [13]
  Plant response rating, Blackgrass: 70
[8]; [14]
  Plant response rating, Blackgrass: 70
[8]; [15]
  Plant response rating, Blackgrass: 85
[8]; [16]
  Plant response rating, Blackgrass: 95
[8]; [17]
  Plant response rating, Blackgrass: 98
[9]; postemergence, 0-100 scale
  Velvetleaf plant response rating: 0
[9]; [12]
  Plant response rating, Velvetleaf: 0
[9]; [14]
  Plant response rating, Velvetleaf: 0
[9]; [15]
  Plant response rating, Velvetleaf: 0
[9]; [16]
  Plant response rating, Velvetleaf: 0
[9]; [17]
  Plant response rating, Velvetleaf: 0
[9]; Preemergence, scale 0 to 100
  Velvetleaf plant response rating: 0
[10]; postemergence, 0-100 scale
  Foxtail, Green plant response rating: 60
[10]; [12]
  Plant response rating, Foxtail, Green: 60
[10]; [13]
  Plant response rating, Foxtail, Green: 90
[10]; [14]
  Plant response rating, Foxtail, Green: 95
[10]; [15]
  Plant response rating, Foxtail, Green: 100
[10]; [16]
  Plant response rating, Foxtail, Green: 100
[10]; [17]
  Plant response rating, Foxtail, Green: 100
[10]; Preemergence, scale 0 to 100
  Foxtail, Green plant response rating: 70
Wild oat (Avena fatua); postemergence, 0-100 scale
  Oat, Wild plant response rating: 60
Wild oat (Avena fatua); [12]
  Plant response rating, Oat, Wild: 85
Wild oat (Avena fatua); [13]
  Plant response rating, Oat, Wild: 95
Wild oat (Avena fatua); [14]
  Plant response rating, Oat, Wild: 95
Wild oat (Avena fatua); [15]
  Plant response rating, Oat, Wild: 0
Wild oat (Avena fatua); [16]
  Plant response rating, Oat, Wild: 60
Wild oat (Avena fatua); [17]
  Plant response rating, Oat, Wild: 80
Wild oat (Avena fatua); Preemergence, scale 0 to 100
  Oat, Wild plant response rating: 0
[11]; postemergence, 0-100 scale
  Lambsquarters plant response rating: 0
[11]; [12]
  Plant response rating, Lambsquarters: 0
[11]; [13]
  Plant response rating, Lambsquarters: 0
[11]; [14]
  Plant response rating, Lambsquarters: 0
[11]; [15]
  Plant response rating, Lambsquarters: 0
[11]; [16]
  Plant response rating, Lambsquarters: 0
[11]; [17]
  Plant response rating, Lambsquarters: 0
[11]; Preemergence, scale 0 to 100
  Lambsquarters plant response rating: 0
